Reference: US9790169B2, “IDO inhibitors” (BRISTOL-MYERS SQUIBB COMPANY, priority 2015, dated 2017)

Molecular target: human IDO1 (Homo sapiens, UniProt P14902)
Test: Assessment of human IDO-1 inhibitory activity in HEK cells (human IDO1/HEK293 cells, kynurenine read-out with Ehrlich reagent, absorbance 490 nm)
Format: cell-based
Design: expressed in transfected cells
Settings: HEK Human IDO-1 cellular assay
How it was run: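 HEK293 cells stably expressing human IDO1 were seeded at 10,000 per well in phenol red-free RPMI with 10% FBS, treated with compound for 20 h at 37 °C. Kynurenine was measured after TCA (0.2% final) and 30 min at 50 °C, using Ehrlich reagent, A490. IC50 normalised to DMSO (0%) and 500 nM reference standard (100%).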

human IDO1, sequence (P14902 whole entry): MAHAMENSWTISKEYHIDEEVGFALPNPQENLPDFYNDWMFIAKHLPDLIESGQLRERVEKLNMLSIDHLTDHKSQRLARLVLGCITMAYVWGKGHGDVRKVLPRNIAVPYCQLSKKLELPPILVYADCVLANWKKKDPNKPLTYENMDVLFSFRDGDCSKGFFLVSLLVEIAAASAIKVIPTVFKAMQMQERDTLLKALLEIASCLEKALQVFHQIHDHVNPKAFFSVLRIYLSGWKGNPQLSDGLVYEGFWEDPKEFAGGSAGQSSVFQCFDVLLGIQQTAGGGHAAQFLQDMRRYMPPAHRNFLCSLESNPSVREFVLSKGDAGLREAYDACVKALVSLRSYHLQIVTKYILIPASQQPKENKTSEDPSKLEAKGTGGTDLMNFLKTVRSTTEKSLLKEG

Row | Compound | IC50 [nM]
1 | CCN(c1ccc(C(C)CC(=O)O)cc1Nc1cnc(C)nc1)C1CCOCC1 (single isomer, unassigned) [Example 636, 3-(4-(ethyl(tetrahydro-2H-pyran-4-yl)amino)-3-((2-methylpyrimidin-5-yl)amino)phenyl)butanoic acid] | > 50
2 | CCC(CC(=O)O)c1ccc(N2CCC[C@H]2C(C)(C)F)c(Nc2ccc3nc(C)sc3c2)c1 (single isomer, unassigned) [Example 789] | > 50
3 | CCOc1ncc(Nc2cc(C(C)CC(=O)O)ccc2N2CCC[C@H]2C(C)(C)O)cn1 (single isomer, unassigned) [Example 800] | > 50
4 | CCC(CC(=O)O)c1ccc(N2C[C@@H]3C[C@H]2CN3C(=O)OC(C)(C)C)c(Nc2ccccc2)c1 (single isomer, unassigned) [Example 446] | < 50
5 | CCC(CC(=O)O)c1ccc(N2CCC[C@@H]2C(C)(C)O)c(Nc2ccc(F)cc2)c1 (single isomer, unassigned) [Example 784] | > 50
6 | CC[C@@H](CC(=O)O)c1ccc(N(CC(C)C)CC(C)C)c(Nc2ccc(Cl)cc2)c1 (single isomer, unassigned) [Example 11] | < 50
7 | CC[C@@H](CC(=O)O)c1ccc(N(CC)C2CCOCC2)c(NC(=O)Nc2ccc(F)cc2)c1 (single isomer, unassigned) [Example 490] | < 50
8 | CC[C@@H](CC(=O)O)c1ccc(N(CC(C)C)C2CCS(=O)(=O)CC2)c(NC(=O)Nc2ccc(OC)cc2F)c1 (single isomer, unassigned) [Example 216] | > 50
9 | CCc1cnc(Nc2cc([C@H](CC)CC(=O)O)ccc2N(CC)C2CCOCC2)nc1 (single isomer, unassigned) [Example 500] | > 50
10 | CC[C@H](CC(=O)O)c1ccc(N2CCC[C@@H]2C(C)(C)O)c(NC(=O)Nc2ccc(C)cc2)c1 (single isomer, unassigned) [Example 774] | > 50
11 | CCN(c1ccc(C(C)CC(=O)O)cc1NC(=O)Nc1ccccc1F)C1CCOCC1 (single isomer, unassigned) [Example 638, 3-(4-(ethyl(tetrahydro-2H-pyran-4-yl)amino)-3-(3-(2-fluorophenyl)ureido)phenyl) butanoic acid] | < 50
12 | COc1ncc(Nc2cc(C(C)CC(=O)O)ccc2N2CCC[C@H]2C(C)(C)O)cn1 (single isomer, unassigned) [Example 801] | > 50
13 | COCC(CC(=O)O)c1ccc(N(CC(C)C)CC(C)C)c(NC(=O)Nc2cncnc2)c1 (single isomer, unassigned) [997-1] | > 50
14 | COCC(CC(=O)O)c1cc(F)c(N(CC(C)C)CC(C)C)c(NC(=O)Nc2ccc(C)cc2)c1 (single isomer, unassigned) [Example 1194, 3-(4-(Diisobutylamino)-3-fluoro-5-(3-(p-tolyl)ureido)phenyl)-4-methoxybutanoic acid] | < 50
15 | CCOc1ccc(NC(=O)Nc2cc(C(CC(=O)O)C3CC3)ccc2N(CC(C)C)C2CCOCC2)cc1 (single isomer, unassigned) [Example 1205 Enantiomer 1, 3-Cyclopropyl-3-(3-(3-(4-ethoxyphenyl)ureido)-4-(isobutyl(tetrahydro-2H-pyran-4-yl)amino)phenyl)propanoic acid] | < 50
16 | CCN(c1ccc([C@@H](COC)CC(=O)O)cc1NC(=O)Nc1ccc(OC(F)F)cc1)C1CCOCC1 (single isomer, unassigned) [Example 425] | > 50

More lines, now with the values ahead:

Row | IC50 [nM] | Compound
17 | < 5 | 3-(4-(isobutyl(tetrahydro-2H-pyran-4-yl)amino)-3-(3-(4-phenoxyphenyl)ureido)phenyl)butanoic acid [Example 959]
18 | < 50 | COCC(CC(=O)O)c1cc(F)c(N(CC(C)C)C2CCCCC2)c(NC(=O)Cc2ccc(Cl)cc2F)c1 (single isomer, unassigned) [Example 1172, 3-(3-(2-(4-chloro-2-fluorophenyl)acetamido)-4-(cyclohexyl(isobutyl)amino)-5-fluorophenyl)-4-methoxybutanoic acid]
19 | < 5 | CCC(CC(=O)O)c1cc(NC(=O)Nc2cnc(OC)nc2)c(N(CC(C)C)CC(C)C)cc1F (racemic) [Example 1140, (±)-3-(4-(Diisobutylamino)-2-fluoro-5-(3-(2-methoxypyrimidin-5-yl)ureido)phenyl)pentanoic acid]
20 | < 50 | Cc1ccc(CC(=O)Nc2cc(C(CC(=O)O)C3CC3)ccc2N(CC(C)C)C2CCOCC2)cc1 (racemic) [Example 1208, (+/−)-3-Cyclopropyl-3-(4-(isobutyl(tetrahydro-2H-pyran-4-yl)amino)-3-(2-(p-tolyl)acetamido)phenyl)propanoic acid]
21 | < 5 | CCC(CC(=O)O)c1cc(F)c(N(CC(C)C)CC(C)C)c(Nc2ccc(C#N)cc2)c1 (single isomer, unassigned) [Example 107, 3-(3-((4-cyanophenyl)amino)-4-(diisobutylamino)-5-fluorophenyl)pentanoic acid]
22 | < 5 | COCC(CC(=O)O)c1cc(F)c(N(CC(C)C)C2CCCCC2)c(NC(=O)Nc2ccc(OC(F)(F)F)cc2)c1 (single isomer, unassigned) [Example 1163, 3-(4-(cyclohexyl(isobutyl)amino)-3-fluoro-5-(3-(4-(trifluoromethoxy)phenyl)ureido)phenyl)-4-methoxybutanoic acid]
23 | < 5 | COCC(CC(=O)O)c1cc(F)c(N(CC(C)C)C2CCCCC2)c(NC(=O)Nc2ccc(Cl)cc2)c1 (single isomer, unassigned) [Example 1162, 3-(3-(3-(4-chlorophenyl)ureido)-4-(cyclohexyl(isobutyl)amino)-5-fluorophenyl)-4-methoxybutanoic acid]
24 | < 50 | CC[C@@H](CC(=O)O)c1ccc(N2CCOC[C@@H]2C(C)C)c(Nc2ccc(F)cc2)c1 (single isomer, unassigned) [Example 84]
25 | < 50 | CCC(CC(=O)O)c1ccc(N(CC(C)C)C2CCCCC2)c(Nc2ccc(Cl)c(OCC(F)(F)F)c2)c1 (single isomer, unassigned) [Example 644, 3-(3-((4-chloro-3-(2,2,2-trifluoroethoxy)phenyl)amino)-4-(cyclohexyl (isobutyl)amino)phenyl) pentanoic acid]
26 | < 50 | CCC(CC(=O)O)c1cc(F)c(N(CC(C)C)CC(C)C)c(Nc2ccc(OCC3CC3)cc2)c1 (single isomer, unassigned) [Example 106, 3-(3-((4-(cyclopropylmethoxy)phenyl)amino)-4-(diisobutylamino)-5-fluorophenyl)pentanoic acid]
27 | < 5 | CCC(CC(=O)O)c1ccc(N2CCOC[C@H]2C(C)C)c(Nc2ccc3c(c2)OC(F)(F)O3)c1 (single isomer, unassigned) [Example 904]
28 | < 50 | CCN(c1ccc([C@@H](COC)CC(=O)O)cc1Nc1ccc2nc(C)sc2c1)C1CCOCC1 (single isomer, unassigned) [Example 377]
29 | < 5 | CC[C@H](CC(=O)O)c1ccc(N(CC)C2CCOCC2)c(Nc2cnc(OC)nc2)c1 (single isomer, unassigned) [Example 519]
30 | < 5 | CC[C@@H](CC(=O)O)c1ccc(N(CC)C2CCOCC2)c(Nc2ccc(OCC(F)(F)F)cc2)c1 (single isomer, unassigned) [Example 475]
31 | < 5 | CCC(CC(=O)O)c1cc(NC(=O)Nc2cc(C)no2)c(N(CC(C)C)C2CCCCC2)cc1F (racemic) [Example 1113, (±)-3-(4-(Cyclohexyl(isobutyl)amino)-2-fluoro-5-(3-(3-methylisoxazol-5-yl)ureido)phenyl)pentanoic acid]
32 | < 5 | CC[C@H](CC(=O)O)c1ccc(N(CC)C2CCCCC2)c(Nc2ccc(OC(F)F)cc2)c1 (single isomer, unassigned) [Example 290]
33 | < 5 | COCC(CC(=O)O)c1cc(F)c(N(CC(C)C)C2CCCCC2)c(NC(=O)Nc2ccc(OC)cc2F)c1 (single isomer, unassigned) [Example 1152, 3-(4-(Cyclohexyl(isobutyl)amino)-3-fluoro-5-(3-(2-fluoro-4-methoxyphenyl)ureido)phenyl)-4-methoxybutanoic acid]
34 | < 5 | CCC(CC(=O)O)c1cc(NC(=O)Nc2ccc3c(c2)OCO3)c(N(CC(C)C)C2CCCCC2)cc1F (racemic) [Example 1110, (±)-3-(5-(3-(Benzo[d][1,3]dioxol-5-yl)ureido)-4-(cyclohexyl(isobutyl)amino)-2-fluorophenyl)pentanoic acid]
35 | < 5 | CCC(CC(=O)O)c1ccc(N(CC(C)C)C2CCCCC2)c(Nc2ccc(OC(F)(F)F)cc2)c1 (single isomer, unassigned) [Example 312, 3-(4-(cyclohexyl(isobutyl)amino)-3-((4-(trifluoromethoxy)phenyl)amino)phenyl)pentanoic acid]
36 | < 5 | CC(CC(=O)O)c1ccc(N(CC(C)(C)O)C2CCCCC2)c(Nc2ccc3c(c2)OC(F)(F)O3)c1 (single isomer, unassigned) [Example 53, 3-(4-(cyclohexyl(2-hydroxy-2-methylpropyl)amino)-3-((2,2-difluorobenzo[d][1,3]dioxol-5-yl)amino)phenyl)butanoic acid]
37 | < 5 | CCC(CC(=O)O)c1ccc(N(CC)C2CCCOC2)c(NC(=O)Nc2ccc(C)cc2)c1 (single isomer, unassigned) [Example 73 D1, 3-(4-(Ethyl(tetrahydro-2H-pyran-3-yl)amino)-3-(3-(p-tolyl)ureido)phenyl)pentanoic acid]
38 | < 5 | COCC(CC(=O)O)c1ccc(N(CC2CC2)C2CCOCC2)c(Nc2ccc(Cl)cc2)c1 (single isomer, unassigned) [Example 679, 3-(3-((4-Chlorophenyl)amino)-4-((cyclopropylmethyl)(tetrahydro-2H-pyran-4-yl)amino)phenyl)-4-methoxybutanoic acid]
39 | < 5 | CC[C@H](CC(=O)O)c1ccc(N(CC)C2CCCCC2)c(Nc2ccc(Cl)cc2)c1 (single isomer, unassigned) [Example 285]
40 | < 5 | CC[C@H](CC(=O)O)c1ccc(N(CC)C2CCCCC2)c(Nc2ccc(C#N)cc2)c1 (single isomer, unassigned) [Example 289]
